Reference: article PMC5218480 (PLoS ONE, 2017)

Test system: MV-4-11 cells
Assay: Gene expression microarray analysis (Affymetrix PrimeView) and GSEA
Assay type: cell-based, human
Design: RFU PODN (11730768_x_at) / Fold change /veh PODN (11730768_x_at) / RFU LINC00158 (11744669_a_at) / Fold change /veh LINC00158 (11744669_a_at) / RFU DUSP10 (11751237_a_at) / Fold change /veh DUSP10 (11751237_a_at) / RFU ID3 (11757404_x_at) / Fold change /veh ID3 (11757404_x_at) / RFU PLEKHG5 (11737974_s_at) / Fold change /veh PLEKHG5 (11737974_s_at) / RFU LRRC4B (11730491_at) / Fold change /veh LRRC4B (11730491_at) / RFU GIMAP4 (11747438_a_at) / Fold change /veh GIMAP4 (11747438_a_at) / RFU KRT8 (11758183_x_at) / Fold change /veh KRT8 (11758183_x_at) / RFU CNN1 (11734310_a_at) / Fold change /veh CNN1 (11734310_a_at) / RFU VPS37D (11726825_at) / Fold change /veh VPS37D (11726825_at) / RFU C10orf10 (11716522_x_at) / Fold change /veh C10orf10 (11716522_x_at) / RFU KIR2DL2 /// KIR2DL4 /// KIR2DL5A /// KIR2DL5B /// KIR2DS1 /// KIR2DS2 /// KIR2DS3 /// KIR2DS4 /// KIR3DL3 /// KIR3DL3 /// KIR3DS1 (11738374_at) / Fold change /veh KIR2DL2 /// KIR2DL4 /// KIR2DL5A /// KIR2DL5B /// KIR2DS1 /// KIR2DS2 /// KIR2DS3 /// KIR2DS4 /// KIR3DL3 /// KIR3DL3 /// KIR3DS1 (11738374_at) / RFU C1QL1 (11718748_at) / Fold change /veh C1QL1 (11718748_at) / RFU TMPRSS4 (11747572_a_at) / Fold change /veh TMPRSS4 (11747572_a_at) / RFU HAMP (11756126_x_at) / Fold change /veh HAMP (11756126_x_at) / RFU RNFT2 (11725882_a_at) / Fold change /veh RNFT2 (11725882_a_at) / RFU NR4A2 (11747474_a_at) / Fold change /veh NR4A2 (11747474_a_at) / RFU ABCC12 (11746883_a_at) / Fold change /veh ABCC12 (11746883_a_at) / RFU TMEM136 (11760407_x_at) / Fold change /veh TMEM136 (11760407_x_at) / RFU CLDN22 /// WWC2 (11732394_at) / Fold change /veh CLDN22 /// WWC2 (11732394_at) / RFU HLA-DPB1 (11760878_x_at) / Fold change /veh HLA-DPB1 (11760878_x_at) / RFU SPINT1 (11716480_a_at) / Fold change /veh SPINT1 (11716480_a_at) / RFU GAP43 (11754022_s_at) / Fold change /veh GAP43 (11754022_s_at) / RFU A4GNT (11735810_at) / Fold change /veh A4GNT (11735810_at) / RFU PRB3 (11715151_x_at) / Fold change /veh PRB3 (11715151_x_at) / RFU TUBB4B (11761932_at) / Fold change /veh TUBB4B (11761932_at) / RFU CAPN14 (11732068_a_at) / Fold change /veh CAPN14 (11732068_a_at) / RFU TMCC2 (11721928_a_at) / Fold change /veh TMCC2 (11721928_a_at) / RFU IRGQ (11745062_a_at) / Fold change /veh IRGQ (11745062_a_at) / RFU FAM174B (11720279_a_at) / Fold change /veh FAM174B (11720279_a_at) / RFU TMPRSS4 (11748680_a_at) / Fold change /veh TMPRSS4 (11748680_a_at) / RFU FAM212B (11763350_a_at) / Fold change /veh FAM212B (11763350_a_at) / RFU PLEKHG5 (11743358_a_at) / Fold change /veh PLEKHG5 (11743358_a_at) / RFU ZSCAN30 (11745921_a_at) / Fold change /veh ZSCAN30 (11745921_a_at) / RFU CMKLR1 (11741424_a_at) / Fold change /veh CMKLR1 (11741424_a_at) / RFU LOC101060620 /// MAPK8IP1 (11723275_at) / Fold change /veh LOC101060620 /// MAPK8IP1 (11723275_at) / RFU SPTSSB (11747773_x_at) / Fold change /veh SPTSSB (11747773_x_at) / RFU PRSS12 (11739890_at) / Fold change /veh PRSS12 (11739890_at) / RFU BIN1 (11741810_x_at) / Fold change /veh BIN1 (11741810_x_at) / RFU WNT11 (11732464_a_at) / Fold change /veh WNT11 (11732464_a_at) / RFU C10orf10 (11716521_a_at) / Fold change /veh C10orf10 (11716521_a_at) / RFU C5orf56 (11738089_at) / Fold change /veh C5orf56 (11738089_at) / RFU CYB561 (11721691_x_at) / Fold change /veh CYB561 (11721691_x_at) / RFU ANKRD19P (11752326_a_at) / Fold change /veh ANKRD19P (11752326_a_at) / RFU OR2T12 /// OR2T33 /// OR2T8 (11738714_s_at) / Fold change /veh OR2T12 /// OR2T33 /// OR2T8 (11738714_s_at) / RFU VCAN (11748164_a_at) / Fold change /veh VCAN (11748164_a_at) / RFU JSRP1 (11732532_at) / Fold change /veh JSRP1 (11732532_at) / RFU KRTAP10-11 (11738290_x_at) / Fold change /veh KRTAP10-11 (11738290_x_at) / RFU MYO3A (11730013_a_at) / Fold change /veh MYO3A (11730013_a_at) / RFU EBF3 (11725865_a_at) / Fold change /veh EBF3 (11725865_a_at) / RFU CAMK2N1 (11719241_x_at) / Fold change /veh CAMK2N1 (11719241_x_at) / RFU C5orf56 (11738088_a_at) / Fold change /veh C5orf56 (11738088_a_at) / RFU OLFML3 (11715873_a_at) / Fold change /veh OLFML3 (11715873_a_at) / RFU LOC100653217 /// NTM (11731650_a_at) / Fold change /veh LOC100653217 /// NTM (11731650_a_at) / RFU MAPK11 (11762145_a_at) / Fold change /veh MAPK11 (11762145_a_at) / RFU FIZ1 (11724087_x_at) / Fold change /veh FIZ1 (11724087_x_at) / RFU OASL (11726364_x_at) / Fold change /veh OASL (11726364_x_at) / RFU SOX15 (11748057_x_at) / Fold change /veh SOX15 (11748057_x_at) / RFU CD79A (11719716_a_at) / Fold change /veh CD79A (11719716_a_at) / RFU HIST1H1D (11736915_at) / Fold change /veh HIST1H1D (11736915_at) / RFU CASKIN2 (11723855_a_at) / Fold change /veh CASKIN2 (11723855_a_at) / RFU LOC730098 (11760151_x_at) / Fold change /veh LOC730098 (11760151_x_at) / RFU OR4N2 (11742367_at) / Fold change /veh OR4N2 (11742367_at) / RFU PRRT2 (11749266_a_at) / Fold change /veh PRRT2 (11749266_a_at) / RFU SNX32 (11753110_a_at) / Fold change /veh SNX32 (11753110_a_at) / RFU CDHR5 (11726645_a_at) / Fold change /veh CDHR5 (11726645_a_at) / RFU RCAN1 (11760418_a_at) / Fold change /veh RCAN1 (11760418_a_at) / RFU FAM167A (11723789_a_at) / Fold change /veh FAM167A (11723789_a_at) / RFU FAM26E (11764081_at) / Fold change /veh FAM26E (11764081_at) / RFU ISYNA1 (11749810_s_at) / Fold change /veh ISYNA1 (11749810_s_at) / RFU ACY1 (11761880_at) / Fold change /veh ACY1 (11761880_at) / RFU 11764098_at / Fold change /veh 11764098_at / RFU SAMD14 (11745864_x_at) / Fold change /veh SAMD14 (11745864_x_at) / RFU NPB (11741838_a_at) / Fold change /veh NPB (11741838_a_at) / RFU TMPRSS6 (11731388_a_at) / Fold change /veh TMPRSS6 (11731388_a_at) / RFU KRTAP10-2 (11738614_at) / Fold change /veh KRTAP10-2 (11738614_at) / RFU ARHGAP8 /// PRR5-ARHGAP8 (11727945_x_at) / Fold change /veh ARHGAP8 /// PRR5-ARHGAP8 (11727945_x_at) / RFU KRTAP5-7 /// NADSYN1 (11734609_at) / Fold change /veh KRTAP5-7 /// NADSYN1 (11734609_at) / RFU RASL12 (11751679_a_at) / Fold change /veh RASL12 (11751679_a_at) / RFU CDKN2B (11736163_a_at) / Fold change /veh CDKN2B (11736163_a_at) / RFU PRF1 (11729649_at) / Fold change /veh PRF1 (11729649_at) / RFU, ZNF638 /// ZNF638-IT1 / Fold change vs veh, ZNF638 /// ZNF638-IT1 / RFU, PANK3 / Fold change vs veh, PANK3 / RFU, SH3YL1 / Fold change vs veh, SH3YL1 / RFU, ZEB2 / Fold change vs veh, ZEB2 / RFU, NRIP1 / Fold change vs veh, NRIP1 / RFU, PTTG1IP / Fold change vs veh, PTTG1IP / RFU, CAPN2 / Fold change vs veh, CAPN2 / RFU, MED14 / Fold change vs veh, MED14 / RFU, SNORA58 / Fold change vs veh, SNORA58 / RFU, C1orf63 / Fold change vs veh, C1orf63 / RFU, LRRFIP1 / Fold change vs veh, LRRFIP1 / RFU, NDUFAF7 / Fold change vs veh, NDUFAF7 / RFU, SLC12A2 / Fold change vs veh, SLC12A2 / RFU, IBTK / Fold change vs veh, IBTK / RFU, ESF1 / Fold change vs veh, ESF1 / Fold change vs veh, TMEM50B / RFU, TAOK1 / Fold change vs veh, TAOK1 / RFU, ACBD3 / Fold change vs veh, ACBD3 / RFU, TMA16 / Fold change vs veh, TMA16 / RFU, RWDD3 / Fold change vs veh, RWDD3 / RFU, BCAT1 / Fold change vs veh, BCAT1 / RFU, EDEM3 / Fold change vs veh, EDEM3 / RFU, TMEM33 / Fold change vs veh, TMEM33 / RFU, WDR75 / Fold change vs veh, WDR75 / RFU, AHCTF1 / Fold change vs veh, AHCTF1 / RFU, TFRC / Fold change vs veh, TFRC / RFU, ZDHHC17 / Fold change vs veh, ZDHHC17 / RFU, NOM1 / Fold change vs veh, NOM1 / RFU, ARL8B / Fold change vs veh, ARL8B / RFU, ZBTB11 / Fold change vs veh, ZBTB11 / RFU, TAMM41 / Fold change vs veh, TAMM41 / RFU, KIAA1704 /// LOC100996395 / Fold change vs veh, KIAA1704 /// LOC100996395 / RFU, ING1 / Fold change vs veh, ING1 / RFU, TRMT61B / Fold change vs veh, TRMT61B / RFU, FUBP3 / Fold change vs veh, FUBP3 / RFU, TP53 / Fold change vs veh, TP53 / RFU, TNKS2 / Fold change vs veh, TNKS2 / RFU, ZFP14 / Fold change vs veh, ZFP14 / RFU, ACTR2 / Fold change vs veh, ACTR2 / RFU, PPP3R1 / Fold change vs veh, PPP3R1 / RFU, PIK3R1 / Fold change vs veh, PIK3R1 / RFU, HNRNPA1 / Fold change vs veh, HNRNPA1 / RFU, RNF170 / Fold change vs veh, RNF170 / RFU, ZNF28 / Fold change vs veh, ZNF28 / RFU, RNGTT / Fold change vs veh, RNGTT / RFU, OGT / Fold change vs veh, OGT / RFU, BRD1 / Fold change vs veh, BRD1 / RFU, MARS / Fold change vs veh, MARS / RFU, ZNF655 / Fold change vs veh, ZNF655 / RFU, FAHD1 / Fold change vs veh, FAHD1 / RFU, BDP1 / Fold change vs veh, BDP1 / RFU, LRRCC1 / Fold change vs veh, LRRCC1 / RFU, ARID1A / Fold change vs veh, ARID1A / RFU, ZNF146 / Fold change vs veh, ZNF146 / RFU, ZNF330 / Fold change vs veh, ZNF330 / RFU, GPN3 / Fold change vs veh, GPN3 / RFU, C9orf123 / Fold change vs veh, C9orf123 / RFU, N4BP2L2 / Fold change vs veh, N4BP2L2 / RFU, ARFIP1 / Fold change vs veh, ARFIP1 / RFU, FAM179B / Fold change vs veh, FAM179B / RFU, BCL10 / Fold change vs veh, BCL10 / RFU, UHRF1BP1L / Fold change vs veh, UHRF1BP1L / RFU, BET1 / Fold change vs veh, BET1 / RFU, CNOT2 / Fold change vs veh, CNOT2 / RFU, ZNF268 / Fold change vs veh, ZNF268 / Fold change vs veh, ZNF507 / RFU, DGCR2 / Fold change vs veh, DGCR2 / RFU, WDSUB1 / Fold change vs veh, WDSUB1 / Fold change vs veh, HSP90B1 /// MIR3652 / RFU, ADSS / Fold change vs veh, ADSS / RFU, GK / Fold change vs veh, GK / RFU, ZNF148 / Fold change vs veh, ZNF148 / RFU, TAF9 / Fold change vs veh, TAF9 / RFU, SLC1A5 / Fold change vs veh, SLC1A5 / RFU, SLMO2 / Fold change vs veh, SLMO2 / RFU, ABCC4 / Fold change vs veh, ABCC4 / RFU, LOC101060439 /// RAP1B / Fold change vs veh, LOC101060439 /// RAP1B / RFU, RFX7 / Fold change vs veh, RFX7 / RFU, GTPBP10 / Fold change vs veh, GTPBP10 / RFU, CNEP1R1 / Fold change vs veh, CNEP1R1 / RFU, BIVM-ERCC5 /// ERCC5 / Fold change vs veh, BIVM-ERCC5 /// ERCC5 / RFU, ILF3 / Fold change vs veh, ILF3 / RFU 11762660_at / Fold change /veh 11762660_at / RFU VCAN (11757783_s_at) / Fold change /veh VCAN (11757783_s_at) / RFU DDX43 (11728927_at) / Fold change /veh DDX43 (11728927_at) / RFU KRT8 (11758188_x_at) / Fold change /veh KRT8 (11758188_x_at) / RFU NKD1 (11759106_at) / Fold change /veh NKD1 (11759106_at) / RFU SRD5A1 (11742802_a_at) / Fold change /veh SRD5A1 (11742802_a_at) / RFU TPSAB1 /// TPSB2 (11721975_s_at) / Fold change /veh TPSAB1 /// TPSB2 (11721975_s_at) / RFU GSTM3 (11746129_a_at) / Fold change /veh GSTM3 (11746129_a_at) / RFU IL23R (11737362_x_at) / Fold change /veh IL23R (11737362_x_at) / RFU TMEM51 (11727254_a_at) / Fold change /veh TMEM51 (11727254_a_at) / RFU PIWIL2 (11732686_x_at) / Fold change /veh PIWIL2 (11732686_x_at) / RFU ORM1 (11744905_x_at) / Fold change /veh ORM1 (11744905_x_at) / RFU CCDC152 (11743942_at) / Fold change /veh CCDC152 (11743942_at) / RFU ECM1 (11717891_a_at) / Fold change /veh ECM1 (11717891_a_at) / RFU IL23R (11748794_a_at) / Fold change /veh IL23R (11748794_a_at) / RFU TNFAIP8L3 (11732012_x_at) / Fold change /veh TNFAIP8L3 (11732012_x_at) / RFU MBOAT4 (11741988_at) / Fold change /veh MBOAT4 (11741988_at) / RFU 11764193_at / Fold change /veh 11764193_at / RFU TMEM53 (11763286_at) / Fold change /veh TMEM53 (11763286_at) / RFU MAGEB2 (11727129_at) / Fold change /veh MAGEB2 (11727129_at) / RFU TMEM200A (11744735_a_at) / Fold change /veh TMEM200A (11744735_a_at) / RFU CCDC152 (11751479_a_at) / Fold change /veh CCDC152 (11751479_a_at) / RFU FAM211A (11726209_a_at) / Fold change /veh FAM211A (11726209_a_at) / RFU RGS16 (11746705_a_at) / Fold change /veh RGS16 (11746705_a_at) / RFU VCAN (11755009_s_at) / Fold change /veh VCAN (11755009_s_at) / RFU RHOB (11743442_s_at) / Fold change /veh RHOB (11743442_s_at) / RFU RGS16 (11720943_a_at) / Fold change /veh RGS16 (11720943_a_at) / RFU RGS16 (11720944_at) / Fold change /veh RGS16 (11720944_at) / RFU, VPS4B / Fold change vs veh, VPS4B / RFU, CREB1 / Fold change vs veh, CREB1 / RFU, DNAJC13 / Fold change vs veh, DNAJC13 / RFU, GNAQ / Fold change vs veh, GNAQ / RFU, CDK5R1 / Fold change vs veh, CDK5R1 / RFU, ZRANB3 / Fold change vs veh, ZRANB3 / RFU, CUL4A / Fold change vs veh, CUL4A / RFU, CCNY / Fold change vs veh, CCNY / RFU, UFL1 / Fold change vs veh, UFL1 / RFU, COG3 / Fold change vs veh, COG3 / RFU, DIAPH2 / Fold change vs veh, DIAPH2 / RFU, SKA2 / Fold change vs veh, SKA2 / RFU, AFF3 / Fold change vs veh, AFF3 / RFU, LMF1 / Fold change vs veh, LMF1 / RFU, IPO11 / Fold change vs veh, IPO11 / RFU, DFFB / Fold change vs veh, DFFB / RFU, FOXP1 / Fold change vs veh, FOXP1 / RFU, CARD8 / Fold change vs veh, CARD8 / RFU, STRN3 / Fold change vs veh, STRN3 / RFU, ADK / Fold change vs veh, ADK / RFU, RASSF2 / Fold change vs veh, RASSF2 / RFU, WIPF1 / Fold change vs veh, WIPF1 / RFU, LARP1B / Fold change vs veh, LARP1B / RFU, RASA1 / Fold change vs veh, RASA1 / RFU, RB1 / Fold change vs veh, RB1 / RFU, PPFIA1 / Fold change vs veh, PPFIA1 / RFU, MAT2A / Fold change vs veh, MAT2A / RFU, CCT5 / Fold change vs veh, CCT5 / RFU, WDR92 / Fold change vs veh, WDR92 / RFU, CUX1 / Fold change vs veh, CUX1 / RFU, TTC7A / Fold change vs veh, TTC7A / RFU, TMEM135 / Fold change vs veh, TMEM135 / RFU, DEPTOR / Fold change vs veh, DEPTOR / RFU, CPM / Fold change vs veh, CPM / RFU, DNAJB6 / Fold change vs veh, DNAJB6 / RFU, CACNA2D3 / Fold change vs veh, CACNA2D3 / RFU, DTX4 / Fold change vs veh, DTX4 / RFU, TFCP2 / Fold change vs veh, TFCP2 / RFU, GMCL1 /// GMCL1P1 / Fold change vs veh, GMCL1 /// GMCL1P1 / RFU, AEBP2 / Fold change vs veh, AEBP2 / RFU, SNHG1 /// SNORD22 /// SNORD25 /// SNORD26 /// SNORD27 /// SNORD28 /// SNORD29 /// SNORD31 / Fold change vs veh, SNHG1 /// SNORD22 /// SNORD25 /// SNORD26 /// SNORD27 /// SNORD28 /// SNORD29 /// SNORD31 / Fold change (Aza/veh), C12orf56 (ProbeSet 11735607_a_at) / Fold change (ACY-1035/veh), C12orf56 (ProbeSet 11735607_a_at) / Fold change (Aza/veh), FGFR1OP (ProbeSet 11751329_s_at) / Fold change (ACY-1035/veh), FGFR1OP (ProbeSet 11751329_s_at) / Fold change (Aza/veh), VPS36 (ProbeSet 11739960_a_at) / Fold change (ACY-1035/veh), VPS36 (ProbeSet 11739960_a_at) / RFU SYPL1 (11715823_x_at) / Fold change /veh SYPL1 (11715823_x_at) / RFU IGFBP7 (11715501_s_at) / Fold change /veh IGFBP7 (11715501_s_at) / RFU REEP3 (11722064_at) / Fold change /veh REEP3 (11722064_at) / RFU IGLL1 (11728026_x_at) / Fold change /veh IGLL1 (11728026_x_at): dose or concentration left out as unconfirmed
Conditions: ProbeSet 11743510_at; LIST D

Nc1ncn([C@@H]2O[C@H](CO)[C@@H](O)[C@H]2O)c(=O)n1 [azacitidine]
RFU, UFL1: 314.03 RFU
